Results published in the supplement of paper PMC10307832.

Legend:
Assay in all cases: relative viability (nuclei count vs DMSO), 5 days (fraction); higher = more cells survive
[1] = test system: NCI-H647
Outline: (§1)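 Relative viability was taken as the ratio of nuclei in treated wells to nuclei in vehicle wells. Lung cancer cell lines in 1536-well plates received compounds by pin tool one day after seeding, either one drug alone or a fixed anchor-drug dose plus five library-drug doses (not always all listed) in √10 steps. Nuclei were counted on 4× images after 5 days of treatment, and values are medians of duplicate plates.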

[2] = test system: BEN
Outline: as §1

[3] = test system: NCI-H1792
Outline: as §1

[4] = test system: NCI-H1395
Outline: as §1

[5] = test system: NCI-H522
Outline: as §1

[6] = test system: NCI-H2009
Outline: as §1

[7] = test system: SK-LU-1
Outline: as §1

[8] = test system: NCI-H1355
Outline: as §1

[9] = test system: NCI-H1993
Outline: as §1

[10] = test system: HARA
Outline: as §1

[11] = test system: SK-MES-1
Outline: as §1

[12] = test system: NCI-H1734
Outline: as §1

[13] = test system: NCI-H2170
Outline: as §1

[14] = test system: HCC-366
Outline: as §1

[15] = test system: NCI-H2342
Outline: as §1

[16] = test system: LOU-NH91
Outline: as §1

[17] = test system: NCI-H1437
Outline: as §1

[18] = test system: NCI-H2405
Outline: as §1

[19] = test system: NCI-H2087
Outline: as §1

[20] = test system: NCI-H661
Outline: as §1

[21] = test system: EKVX
Outline: as §1

[22] = test system: HCC-827
Outline: as §1

O=c1cc(N2CCOCC2)oc2c(-c3cccc4c3sc3ccccc34)cccc12 + CC(=O)Nc1cccc(-n2c(=O)n(C3CC3)c(=O)c3c(Nc4ccc(I)cc4F)n(C)c(=O)c(C)c32)c1 [Trametinib] (partner 0.02 µM)
relative viability ([1]; first compound 0.01 µM): 0.503
relative viability ([1]; first compound 0.03162 µM): 0.489
relative viability ([1]; first compound 0.1 µM): 0.487
relative viability ([1]; first compound 0.3162 µM): 0.449
relative viability ([1]; first compound 1 µM): 0.472
relative viability ([2]; first compound 0.01 µM): 1.06
relative viability ([2]; first compound 0.03162 µM): 1.07
relative viability ([2]; first compound 0.1 µM): 1.06
relative viability ([2]; first compound 0.3162 µM): 1.01
relative viability ([2]; first compound 1 µM): 0.943
relative viability ([3]; first compound 0.01 µM): 0.322
relative viability ([3]; first compound 0.03162 µM): 0.445
relative viability ([3]; first compound 0.3162 µM): 0.383
relative viability ([3]; first compound 1 µM): 0.458
relative viability ([4]; first compound 0.03162 µM): 1.1
relative viability ([4]; first compound 0.1 µM): 1.02
relative viability ([4]; first compound 0.3162 µM): 1.07
relative viability ([4]; first compound 1 µM): 1.01
relative viability ([5]; first compound 0.01 µM): 0.733
relative viability ([5]; first compound 0.03162 µM): 0.86
relative viability ([5]; first compound 0.1 µM): 0.793
relative viability ([5]; first compound 0.3162 µM): 0.684
relative viability ([5]; first compound 1 µM): 0.963
relative viability ([6]; first compound 0.01 µM): 0.315
relative viability ([6]; first compound 0.03162 µM): 0.294
relative viability ([6]; first compound 0.1 µM): 0.255
relative viability ([6]; first compound 0.3162 µM): 0.279
relative viability ([6]; first compound 1 µM): 0.212
relative viability ([7]; first compound 0.01 µM): 0.521
relative viability ([7]; first compound 0.03162 µM): 0.453
relative viability ([7]; first compound 0.1 µM): 0.505
relative viability ([7]; first compound 0.3162 µM): 0.443
relative viability ([7]; first compound 1 µM): 0.5
relative viability ([8]; first compound 0.01 µM): 0.435
relative viability ([8]; first compound 0.03162 µM): 0.435
relative viability ([8]; first compound 0.1 µM): 0.435
relative viability ([8]; first compound 0.3162 µM): 0.409
relative viability ([8]; first compound 1 µM): 0.399
relative viability ([9]; first compound 0.01 µM): 0.507
relative viability ([9]; first compound 0.03162 µM): 0.601
relative viability ([9]; first compound 0.1 µM): 0.507
relative viability ([9]; first compound 0.3162 µM): 0.407
relative viability ([9]; first compound 1 µM): 0.516
relative viability ([10]; first compound 0.01 µM): 0.377
relative viability ([10]; first compound 0.03162 µM): 0.828
relative viability ([10]; first compound 0.1 µM): 0.688
relative viability ([10]; first compound 0.3162 µM): 0.621
relative viability ([10]; first compound 1 µM): 0.649
relative viability ([11]; first compound 0.01 µM): 0.546
relative viability ([11]; first compound 0.03162 µM): 0.533
relative viability ([11]; first compound 0.1 µM): 0.518
relative viability ([11]; first compound 0.3162 µM): 0.516
relative viability ([11]; first compound 1 µM): 0.48
relative viability ([12]; first compound 0.01 µM): 0.772
relative viability ([12]; first compound 0.03162 µM): 0.747
relative viability ([12]; first compound 0.1 µM): 0.637
relative viability ([12]; first compound 0.3162 µM): 0.69
relative viability ([12]; first compound 1 µM): 0.758
relative viability ([13]; first compound 0.01 µM): 0.895
relative viability ([13]; first compound 0.03162 µM): 0.897
relative viability ([13]; first compound 0.1 µM): 0.982
relative viability ([13]; first compound 0.3162 µM): 0.801
relative viability ([13]; first compound 1 µM): 0.889
relative viability ([14]; first compound 0.01 µM): 0.411
relative viability ([14]; first compound 0.03162 µM): 0.355
relative viability ([14]; first compound 0.1 µM): 0.36
relative viability ([14]; first compound 0.3162 µM): 0.333
relative viability ([14]; first compound 1 µM): 0.322
relative viability ([15]; first compound 0.01 µM): 0.728
relative viability ([15]; first compound 0.03162 µM): 0.874
relative viability ([15]; first compound 0.1 µM): 0.928
relative viability ([15]; first compound 0.3162 µM): 0.962
relative viability ([15]; first compound 1 µM): 0.833
relative viability ([16]; first compound 0.01 µM): 0.801
relative viability ([16]; first compound 0.03162 µM): 0.798
relative viability ([16]; first compound 0.1 µM): 0.782
relative viability ([16]; first compound 0.3162 µM): 0.821
relative viability ([16]; first compound 1 µM): 0.767
relative viability ([17]; first compound 0.01 µM): 0.693
relative viability ([17]; first compound 0.03162 µM): 0.548
relative viability ([17]; first compound 0.1 µM): 0.531
relative viability ([17]; first compound 0.3162 µM): 0.508
relative viability ([17]; first compound 1 µM): 0.502
relative viability ([18]; first compound 0.01 µM): 0.751
relative viability ([18]; first compound 0.03162 µM): 0.664
relative viability ([18]; first compound 0.1 µM): 0.631
relative viability ([18]; first compound 0.3162 µM): 0.686
relative viability ([18]; first compound 1 µM): 0.665
relative viability ([19]; first compound 0.01 µM): 0.225
relative viability ([19]; first compound 0.03162 µM): 0.195
relative viability ([19]; first compound 0.1 µM): 0.231
relative viability ([19]; first compound 0.3162 µM): 0.188
relative viability ([19]; first compound 1 µM): 0.214
relative viability ([20]; first compound 0.01 µM): 0.541
relative viability ([20]; first compound 0.03162 µM): 0.587
relative viability ([20]; first compound 0.1 µM): 0.674
relative viability ([20]; first compound 0.3162 µM): 0.581
relative viability ([20]; first compound 1 µM): 0.603
relative viability ([21]; first compound 0.01 µM): 0.299
relative viability ([21]; first compound 0.03162 µM): 0.312
relative viability ([21]; first compound 0.1 µM): 0.337
relative viability ([21]; first compound 0.3162 µM): 0.321
relative viability ([21]; first compound 1 µM): 0.303
relative viability ([22]; first compound 0.01 µM): 0.528
relative viability ([22]; first compound 0.03162 µM): 0.508
relative viability ([22]; first compound 0.1 µM): 0.547
relative viability ([22]; first compound 0.3162 µM): 0.504
relative viability ([22]; first compound 1 µM): 0.525
